Key:
[1] = test system: cucumber gray mold microorganism; assay: Cucumber gray mold preventing effect assay; assay type: in vivo, Botrytis cinerea; details: analogous assay at 25 mg/l
Description: The sprayed leaves were air-dried, and loaded with a paper disc (8 mm in diameter) soaked with a spore suspension of a cucumber gray mold microorganism, and kept at 20 degrees C. and a high humidity. 4 Days after inoculation, the cucumber gray mold severity was investigated, and the protective value was calculated by the following equation. [table]

[2] = test system: wheat septoria bloth microorganism (Septoria tritici); assay: Antimicroorganism effect, mycelial extension on PDA plate; assay type: cell-based; details: Zymoseptoria tritici, PDA plate medium, 50 mg/l, 1 to 3 days, read-out: growth inhibition grade
[3] = test system: wheat stagonospora blotch microorganism (Phaeosphaeria nodorum); assay: as above; assay type: cell-based; details: Parastagonospora nodorum, PDA plate medium, 50 mg/l, 1 to 3 days, read-out: growth inhibition grade
[4] = test system: wheat eye spot microorganism (Pseudocercosporella herpotrichoides); assay: as above; assay type: cell-based; details: Oculimacula yallundae, PDA plate medium, 50 mg/l, 1 to 3 days, read-out: growth inhibition grade
[5] = test system: wheat pink snow mold microorganism (Microdochium nivale); assay: as above; assay type: cell-based; details: PDA plate medium, 50 mg/l, 1 to 3 days, read-out: growth inhibition grade
[6] = test system: wheat take-all microorganism (Gaeumannomyces graminis); assay: as above; assay type: cell-based; details: PDA plate medium, 50 mg/l, 1 to 3 days, read-out: growth inhibition grade
[7] = test system: barley stripe microorganism (Pyrenophora graminea); assay: as above; assay type: cell-based; details: PDA plate medium, 50 mg/l, 1 to 3 days, read-out: growth inhibition grade
[8] = test system: barley scald microorganism (Rhynchosporium secalis); assay: as above; assay type: cell-based; details: PDA plate medium, 50 mg/l, 1 to 3 days, read-out: growth inhibition grade
[9] = test system: wheat fusarium blight microorganism (Fusarium graminearum); assay: microbe, parasite or virus in culture; assay type: cell-based; details: read-out: growth inhibition grade
[10] = test system: barley loose smut microorganism (Ustilago nuda); assay: Antimicroorganism effect, mycelial extension on PDA plate; assay type: cell-based; details: PDA plate medium, 50 mg/l, 1 to 3 days, read-out: growth inhibition grade
[11] = test system: rice blast microorganism (Pyricularia oryzae); assay: microbe, parasite or virus in culture; assay type: cell-based; details: read-out: growth inhibition grade
[12] = test system: ricesheath blight microorganism (Rhizoctonia solani); assay: Antimicroorganism effect, mycelial extension on PDA plate; assay type: cell-based; details: PDA plate medium, 50 mg/l, 1 to 3 days, read-out: growth inhibition grade
[13] = test system: rice bakanae disease microorganism (Giberella fujikuroi); assay: as above; assay type: cell-based; details: PDA plate medium, 50 mg/l, 1 to 3 days, read-out: growth inhibition grade
[14] = test system: rice seedling blight microorganism (Rhizopus) (Rhizopus oryzae); assay: as above; assay type: cell-based; details: Rhizopus arrhizus, PDA plate medium, 50 mg/l, 1 to 3 days, read-out: growth inhibition grade
[15] = test system: apple alternaria blotch microorganism (Alternaria alternata); assay: as above; assay type: cell-based; details: PDA plate medium, 50 mg/l, 1 to 3 days, read-out: growth inhibition grade
[16] = test system: sclerotinia rot microorganism (Sclerotinia sclerotiorum); assay: as above; assay type: cell-based; details: PDA plate medium, 50 mg/l, 1 to 3 days, read-out: growth inhibition grade
[17] = test system: gray mold microorganism (Botritis cinerea); assay: as above; assay type: cell-based; details: PDA plate medium, 50 mg/l, 1 to 3 days, read-out: growth inhibition grade
[18] = test system: anthracnose microorganism (Glomerella cingulata); assay: as above; assay type: cell-based; details: Colletotrichum gloeosporioides, PDA plate medium, 50 mg/l, 1 to 3 days, read-out: growth inhibition grade
[19] = test system: cucumber fusarium wilt microorganism (Fusarium oxysporum); assay: as above; assay type: cell-based; details: PDA plate medium, 50 mg/l, 1 to 3 days, read-out: growth inhibition grade
[20] = test system: citrous blue mold microorganism (Penicillium italicum); assay: as above; assay type: cell-based; details: PDA plate medium, 50 mg/l, 1 to 3 days, read-out: growth inhibition grade
[21] = test system: sugar beet cercospora leaf spot microorganism (Cercospora beticola); assay: as above; assay type: cell-based; details: PDA plate medium, 50 mg/l, 1 to 3 days, read-out: growth inhibition grade
[22] = test system: Aspergillus microorganism (Aspergillus sp.); assay: as above; assay type: cell-based; details: PDA plate medium, 50 mg/l, 1 to 3 days, read-out: growth inhibition grade
[23] = test system: Tricoderma microorganism (Trichoderma sp.); assay: as above; assay type: cell-based; details: PDA plate medium, 50 mg/l, 1 to 3 days, read-out: growth inhibition grade
[24] = test system: penicillium microorganism (Penicillium sp.); assay: as above; assay type: cell-based; details: PDA plate medium, 50 mg/l, 1 to 3 days, read-out: growth inhibition grade
[25] = test system: Cladosporium microorganism (Cladosporium sp.); assay: as above; assay type: cell-based; details: PDA plate medium, 50 mg/l, 1 to 3 days, read-out: growth inhibition grade
[26] = test system: Mucor microorganism (Mucor sp.); assay: as above; assay type: cell-based; details: PDA plate medium, 50 mg/l, 1 to 3 days, read-out: growth inhibition grade
[27] = test system: Aureobasidium microorganism (Aureobasidium sp.); assay: as above; assay type: cell-based; details: PDA plate medium, 50 mg/l, 1 to 3 days, read-out: growth inhibition grade
[28] = test system: Curvularia microorganism (Curvularia sp.); assay: as above; assay type: cell-based; details: PDA plate medium, 50 mg/l, 1 to 3 days, read-out: growth inhibition grade
[29] = test system: wood denaturing microorganism (Tyromyces palustris); assay: as above; assay type: cell-based; details: PDA plate medium, 50 mg/l, 1 to 3 days, read-out: growth inhibition grade
[30] = test system: wood denaturing microorganism (Coriolus versicolor); assay: as above; assay type: cell-based; details: Trametes versicolor, PDA plate medium, 50 mg/l, 1 to 3 days, read-out: growth inhibition grade

Structure (SMILES) | inhibition at 50 µg/mL [2] | inhibition at 50 µg/mL [3] | inhibition at 50 µg/mL [4] | inhibition at 50 µg/mL [5] | inhibition at 50 µg/mL [6] | inhibition at 50 µg/mL [7] | inhibition at 50 µg/mL [8] | inhibition at 50 µg/mL [9] | inhibition at 50 µg/mL [10] | inhibition at 50 µg/mL [11] | inhibition at 50 µg/mL [12] | inhibition at 50 µg/mL [13] | inhibition at 50 µg/mL [14] | inhibition at 50 µg/mL [15] | inhibition at 50 µg/mL [16] | inhibition at 50 µg/mL [17] | inhibition at 50 µg/mL [18] | inhibition at 50 µg/mL [19] | inhibition at 50 µg/mL [20] | melting point | other results
OC1(Cn2cncn2)C(Cc2ccc(Cl)cc2)CCC12CC2 (single isomer, unassigned) [Compound I-1, 5-(4-chlorobenzyl)-4-(1H-1,2,4-triazol-1-ylmethyl)-4-spiro[2.4]heptanol] | > 90% | > 90% | > 90% | 70 to 90% | > 90% | > 90% | > 90% | > 90% | 70 to 90% | > 90% | 70 to 90% | > 90% | 70 to 90% | 70 to 90% | > 90% | > 90% | > 90% | > 90% | > 90% | 85.5 to 87 °C | Controlling value [1]: 100%; activity compared with Compound (A) [1]: higher activity; inhibition at 50 µg/mL [21]: > 90%; inhibition at 50 µg/mL [22]: > 90%; inhibition at 50 µg/mL [23]: > 90%; inhibition at 50 µg/mL [24]: > 90%; inhibition at 50 µg/mL [25]: > 90%; inhibition at 50 µg/mL [26]: 70 to 90%; inhibition at 50 µg/mL [27]: 70 to 90%; inhibition at 50 µg/mL [28]: 70 to 90%; inhibition at 50 µg/mL [29]: > 90%; inhibition at 50 µg/mL [30]: > 90%
OC1(Cn2cncn2)C(Cc2ccc(Cl)cc2)CCC12CC2 (single isomer, unassigned) [Compound I-2, 5-(4-chlorobenzyl)-4-(1H-1,2,4-triazol-1-ylmethyl)-4-spiro[2.4]heptanol] | – | – | – | – | – | – | – | – | – | – | – | – | – | – | – | – | – | – | – | 166 to 167 °C | –
OC1(Cn2cncn2)C(Cc2cccc(Cl)c2)CCC12CC2 (single isomer, unassigned) [Compound I-3, 5-(3-chlorobenzyl)-4-(1H-1,2,4-triazol-1-ylmethyl)-4-spiro[2.4]heptanol] | > 90% | > 90% | > 90% | 70 to 90% | > 90% | > 90% | > 90% | > 90% | 70 to 90% | > 90% | 70 to 90% | > 90% | 70 to 90% | 70 to 90% | > 90% | > 90% | > 90% | > 90% | > 90% | 84.5 to 85.5 °C | inhibition at 50 µg/mL [21]: > 90%; inhibition at 50 µg/mL [22]: > 90%; inhibition at 50 µg/mL [23]: > 90%; inhibition at 50 µg/mL [24]: > 90%; inhibition at 50 µg/mL [25]: > 90%; inhibition at 50 µg/mL [26]: 70 to 90%; inhibition at 50 µg/mL [27]: 70 to 90%; inhibition at 50 µg/mL [28]: 70 to 90%; inhibition at 50 µg/mL [29]: > 90%; inhibition at 50 µg/mL [30]: > 90%
OC1(Cn2cncn2)C(Cc2cccc(Cl)c2)CCC12CC2 (single isomer, unassigned) [Compound I-4, 5-(3-chlorobenzyl)-4-(1H-1,2,4-triazol-1-ylmethyl)-4-spiro[2.4]heptanol] | – | – | – | – | – | – | – | – | – | – | – | – | – | – | – | – | – | – | – | 120 to 121 °C | –

From patent US20110124877A1, “5-BENZYL-4-AZOLYLMETHYL-4-SPIRO[2.4]HEPTANOL DERIVATIVES, METHODS FOR PRODUCING THE SAME, AND AGRO-HORTICULTURAL AGENTS AND INDUSTRIAL MATERIAL PROTECTING AGENTS THEREOF” (KUREHA CORPORATION, priority 2008, published 2011)
